Reference: patent US10092575B2, “Substituted thiophene- and furan-fused azolopyrimidine-5-(6H)-one compounds” (DART NEUROSCIENCE (CAYMAN) LTD., priority 2012, dated 2018)

Columns and labels:
human PDE1b enzyme = human PDE1b enzyme (Homo sapiens (Human), UniProt Q01064); assay: PDE1b inhibitory assay (IMAP TR-FRET)
NS1 cells = assay: Neurite outgrowth (NOG) assay; type: cell-based
Protocol: Neuroscreen 1 (NS1) Cells (Cellomics Inc.) were cultured on collagen type I coated 75 cm2 plastic flasks (Biocoat, Becton Dickinson) in a humidified incubator at 37° C. in 5% CO2. Cells were cultured in RPMI complete cell culture medium (Cambrex) supplemented with 10% heat-inactivated horse serum (Invitrogen), 5% heat-inactivated fetal bovine serum (Cellgro), and 2 mM L-glutamine (Cambrex). For expansion, the cells were trypsinized and split at 80% confluence. Cell culture media was changed every 2 to 3 days.
NS1 cells were harvested and counted using a Coulter counter (Becton Dickinson Coulter Z1). Cells were seeded in 96-well collagen I coated plates at a density of 2000 cells per well in volume of […]. RPMI media was supplemented with 200 ng/ml nerve growth factor (NGF, Sigma). NS1 cells were incubated for 72 hours to allow differentiation to a neuronal phenotype. […]
Antibody-stained 96-well plates were stored at 4° C. in the dark until scanning. […] The neurite outgrowth assay is based on two channels to scanning: (1) Channel 1, which detects the Hoechst Dye and is used by the software to identify cells and for automated focusing; and (2) Channel 2, which detects the FITC fluorescence of the secondary antibody and is used by the software to calculate all data generated in reference to neurites. […]

COc1ccc(Cn2c(=O)n3ncnc3c3c4c(sc32)NCCC4)cc1 [Example 220, 6-(4-Methoxybenzyl)-8,9,10,11-tetrahydropyrido[3′,2′:4,5]thieno[3,2-e][1,2,4]triazolo[1,5-c]pyrimidin-5(6H)-one]
PDE1b (pEC50) (human PDE1b enzyme; negative log of half-maximal molar inhibitory concentration, 200 nM FAM-cAMP, reported as ranges): >7

COc1ccc(Cn2c(=O)n3ncnc3c3c4c(sc32)NCCC4)cc1 [Example 221, 6-(4-Methoxybenzyl)-8,9,10,11-tetrahydropyrido[3′,2′:4,5]thieno[3,2-e][1,2,4]triazolo[1,5-c]pyrimidin-5(6H)-one]
EC50 (human PDE1b enzyme): 100 to 1000 nM

COc1ccc(C2CNC(=O)C2)cc1OC1CCCC1 (stereo not shown) [Rolipram]
neurite length and branching / neurite outgrowth (NS1 cells; alone, without forskolin): not affected
neurite length and branching / neurite outgrowth (NS1 cells; in combination with forskolin): enhanced in dose-dependent manner
